Legend:
CDK1/Cyclin B = target: T1, CDK1/Cyclin B (Homo sapiens, UniProt P06493); assay: Enzymatic assay for CDK1 (LANCE Ultra kinase assay, FRET based); format: biochemical; conditions: ATP at Km; read-out: CDK1 enzymatic activity IC50
T1 construct: purchased Invitrogen PR4768C
In short: (§1)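 Kinase activity of each purified CDK/cyclin complex was followed in a FRET format where a Europium anti-phospho-antibody recognises phosphorylated ULight-labeled peptide. ATP was held at its Km.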

OVCAR-3 = OVCAR-3 viability assay (CellTiter-Glo, 72 hours); format: cell-based; conditions: Homo sapiens; OVCAR-3 cells
In short: (§2)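 Each line was plated at its own density (1×10^4, 5×10^3 and 1×10^3 cells/well for MV4-11, OVCAR-3 and A2780 respectively) in RPMI-1640 with 10% FBS. Treatment with compound, 0.0015 uM to 10 uM and DMSO under 0.1%, lasted 72 h. Surviving cells were quantified by CellTiter-Glo.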

CDK2/Cyclin A = target: T2, CDK2/Cyclin A (Homo sapiens, UniProt P24941); assay: Enzymatic assay for CDK2 (LANCE Ultra kinase assay, FRET based); format: biochemical; conditions: ATP at Km
T2 construct: purchased Invitrogen PV6290
In short: (§3)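 Inhibition was measured at ATP Km with 68 nM ULight-MBP peptide and CDK2/Cyclin A ([…]) or CDK5/p25 ([…]), using 8-dose 4-fold compound dilutions from DMSO. Kinase reaction ran 60 min at 23° C, then Eu anti-phospho-MBP plus EDTA were added for another 60 min before the fluorescence read.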

A2780 = A2780 viability assay (CellTiter-Glo, 72 hours); format: cell-based; conditions: Homo sapiens; A2780 cells
In short: as §2

CDK7/Cyclin H/MNAT1 = target: T3, CDK7/Cyclin H/MNAT1 (Homo sapiens, UniProt P50613); assay: Enzymatic assay for CDK7 (LANCE Ultra kinase assay, FRET based); format: biochemical; conditions: for IC50: ATP at Km
T3 construct: purchased Invitrogen PR6749B
In short: as §1

CDK5/p25 = target: T4, CDK5/p25 (Homo sapiens, UniProt Q00535); assay: Enzymatic assay for CDK5 (LANCE Ultra kinase assay, FRET based); format: biochemical; conditions: ATP at Km
T4 construct: purchased Invitrogen PR8543B
In short: as §3

T4 sequence (Q00535 whole entry): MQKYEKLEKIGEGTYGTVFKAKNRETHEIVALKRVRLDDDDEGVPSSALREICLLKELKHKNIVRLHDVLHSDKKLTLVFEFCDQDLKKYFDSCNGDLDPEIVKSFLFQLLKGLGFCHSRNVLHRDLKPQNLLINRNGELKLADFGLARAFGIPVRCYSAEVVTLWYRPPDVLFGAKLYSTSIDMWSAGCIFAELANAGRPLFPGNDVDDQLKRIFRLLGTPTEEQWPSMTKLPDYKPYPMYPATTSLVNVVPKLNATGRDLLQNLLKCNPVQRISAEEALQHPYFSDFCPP
T4 sequence (Q15078 99-307 partner limits assumed): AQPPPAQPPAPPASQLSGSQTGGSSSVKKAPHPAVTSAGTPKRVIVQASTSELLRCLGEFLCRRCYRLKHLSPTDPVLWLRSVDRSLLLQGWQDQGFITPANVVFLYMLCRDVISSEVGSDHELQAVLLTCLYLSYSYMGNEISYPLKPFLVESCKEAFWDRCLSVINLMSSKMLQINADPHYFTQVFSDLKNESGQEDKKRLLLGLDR
T1 sequence (P06493 whole entry): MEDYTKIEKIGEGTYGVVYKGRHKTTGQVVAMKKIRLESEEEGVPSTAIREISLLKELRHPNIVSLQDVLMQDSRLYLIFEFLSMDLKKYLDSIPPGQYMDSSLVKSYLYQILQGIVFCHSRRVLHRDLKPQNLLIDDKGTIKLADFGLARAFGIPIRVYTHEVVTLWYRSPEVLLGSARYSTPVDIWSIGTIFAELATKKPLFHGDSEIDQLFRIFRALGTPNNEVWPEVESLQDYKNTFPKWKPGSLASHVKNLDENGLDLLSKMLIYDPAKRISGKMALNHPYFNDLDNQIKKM
T1 sequence (P14635 whole entry partner): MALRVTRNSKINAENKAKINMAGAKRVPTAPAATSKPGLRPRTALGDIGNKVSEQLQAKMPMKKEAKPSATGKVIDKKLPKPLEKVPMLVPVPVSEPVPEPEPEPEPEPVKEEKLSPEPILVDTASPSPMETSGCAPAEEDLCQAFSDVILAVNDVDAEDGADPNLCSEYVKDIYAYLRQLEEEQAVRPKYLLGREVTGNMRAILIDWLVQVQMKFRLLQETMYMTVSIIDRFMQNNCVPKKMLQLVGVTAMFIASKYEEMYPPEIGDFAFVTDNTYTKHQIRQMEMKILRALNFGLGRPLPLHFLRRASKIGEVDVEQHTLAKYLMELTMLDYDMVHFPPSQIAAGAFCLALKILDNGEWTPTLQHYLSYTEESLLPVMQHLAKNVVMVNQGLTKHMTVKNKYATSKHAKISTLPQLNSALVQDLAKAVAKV
T3 sequence (P50613 whole entry): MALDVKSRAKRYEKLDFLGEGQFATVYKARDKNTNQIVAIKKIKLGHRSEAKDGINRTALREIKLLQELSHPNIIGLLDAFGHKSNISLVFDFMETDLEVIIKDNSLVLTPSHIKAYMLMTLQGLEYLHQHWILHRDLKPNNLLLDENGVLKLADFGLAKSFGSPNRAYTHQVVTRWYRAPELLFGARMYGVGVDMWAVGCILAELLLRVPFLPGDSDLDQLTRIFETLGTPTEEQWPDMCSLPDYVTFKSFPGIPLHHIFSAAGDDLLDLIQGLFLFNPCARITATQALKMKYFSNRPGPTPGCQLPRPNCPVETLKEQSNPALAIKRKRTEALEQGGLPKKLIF
T3 sequence (P51946 whole entry partner): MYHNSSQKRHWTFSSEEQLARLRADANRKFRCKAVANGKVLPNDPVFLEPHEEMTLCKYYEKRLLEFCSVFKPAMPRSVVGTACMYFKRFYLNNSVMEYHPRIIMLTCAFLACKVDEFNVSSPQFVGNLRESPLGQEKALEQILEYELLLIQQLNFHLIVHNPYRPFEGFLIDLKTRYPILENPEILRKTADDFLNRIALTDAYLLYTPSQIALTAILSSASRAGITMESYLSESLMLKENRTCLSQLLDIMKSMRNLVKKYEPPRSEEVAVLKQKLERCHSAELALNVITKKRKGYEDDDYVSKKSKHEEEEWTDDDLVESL
T3 sequence (P51948 whole entry partner): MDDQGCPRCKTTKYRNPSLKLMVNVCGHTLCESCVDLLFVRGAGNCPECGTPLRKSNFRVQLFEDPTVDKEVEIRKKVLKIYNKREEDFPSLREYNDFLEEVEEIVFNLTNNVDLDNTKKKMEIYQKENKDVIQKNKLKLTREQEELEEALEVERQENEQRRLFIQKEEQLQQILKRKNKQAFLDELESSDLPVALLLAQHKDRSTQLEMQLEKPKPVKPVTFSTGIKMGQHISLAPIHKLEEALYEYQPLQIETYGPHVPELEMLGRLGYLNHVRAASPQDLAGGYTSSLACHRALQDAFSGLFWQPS

Compound | IC50 (CDK1/Cyclin B) | IC50 (OVCAR-3) | IC50 (CDK2/Cyclin A) | IC50 (A2780) | IC50 (CDK7/Cyclin H/MNAT1) | CDK1/CDK7: Selectivity of CDK7 inhibition over CDK1 inhibition (CDK7/Cyclin H/MNAT1) | CDK2/CDK7: Selectivity of CDK7 inhibition over CDK2 inhibition (CDK7/Cyclin H/MNAT1) | CDK5/CDK7: Selectivity of CDK7 inhibition over CDK5 inhibition (CDK7/Cyclin H/MNAT1) | IC50 (CDK5/p25)
C=C(F)C(=O)Nc1ccc2c(-c3ccccc3CNc3cc(N4CCC(OC)CC4)nc4c(C(C)C)cnn34)nccc2c1 [Compound 91] | > 1 µM | < 1 µM | > 1 µM | < 1 µM | 0.1 to 1 µM | B (B indicates 50 < [fold] ≤ 500) | B (B indicates 50 < [fold] ≤ 500) | B (B indicates 50 < [fold] ≤ 500) | > 1 µM
C=C(F)C(=O)Nc1ccc2c(-c3ccccc3CNc3nc(N[C@H]4CC[C@@H](OC)C4)nc4c(C(C)C)cnn34)nccc2c1 [Compound 96] | > 1 µM | < 1 µM | > 1 µM | < 1 µM | 0.1 to 1 µM | B (B indicates 50 < [fold] ≤ 500) | B (B indicates 50 < [fold] ≤ 500) | B (B indicates 50 < [fold] ≤ 500) | > 1 µM
C=C(F)C(=O)Nc1ccc2c(-c3ccccc3CNc3nc(NC4CCC(OC)C4)nc4c(C(C)C)cnn34)nccc2c1 (racemic) [Compound 98] | > 1 µM | < 1 µM | > 1 µM | < 1 µM | 0.1 to 1 µM | B (B indicates 50 < [fold] ≤ 500) | B (B indicates 50 < [fold] ≤ 500) | B (B indicates 50 < [fold] ≤ 500) | > 1 µM
C=CC(=O)Nc1ccc2c(-c3ccccc3CNc3cc(N4C5CCC4CC(OC)C5)nc4c(C(C)C)cnn34)nccc2c1 (stereo not drawn) [Compound 119] | > 1 µM | < 1 µM | > 1 µM | < 1 µM | 0.1 to 1 µM | B (B indicates 50 < [fold] ≤ 500) | B (B indicates 50 < [fold] ≤ 500) | B (B indicates 50 < [fold] ≤ 500) | > 1 µM
C=C(F)C(=O)Nc1ccc2c(-c3ccccc3CNc3nc(NC4CCOC4)nc4c(C(C)C)cnn34)nccc2c1 (stereo not drawn) [Compound 92] | > 1 µM | < 1 µM | > 1 µM | < 1 µM | 0.1 to 1 µM | B (B indicates 50 < [fold] ≤ 500) | B (B indicates 50 < [fold] ≤ 500) | B (B indicates 50 < [fold] ≤ 500) | > 1 µM
C=C(F)C(=O)Nc1ccc2c(-c3ccccc3CNc3nc(-c4cccc(OC5CCNC5)c4)nc4c(C(C)C)cnn34)nccc2c1 (racemic) [Compound 87] | > 1 µM | < 1 µM | > 1 µM | < 1 µM | < 0.1 µM | A (A indicates [fold] > 500) | A (A indicates [fold] > 500) | A (A indicates [fold] > 500) | > 1 µM

Other lines, results leading:

IC50 (CDK1/Cyclin B) | IC50 (OVCAR-3) | IC50 (CDK2/Cyclin A) | IC50 (A2780) | IC50 (CDK7/Cyclin H/MNAT1) | CDK1/CDK7: Selectivity of CDK7 inhibition over CDK1 inhibition (CDK7/Cyclin H/MNAT1) | CDK2/CDK7: Selectivity of CDK7 inhibition over CDK2 inhibition (CDK7/Cyclin H/MNAT1) | CDK5/CDK7: Selectivity of CDK7 inhibition over CDK5 inhibition (CDK7/Cyclin H/MNAT1) | IC50 (CDK5/p25) | Compound
> 1 µM | < 1 µM | > 1 µM | < 1 µM | < 0.1 µM | A (A indicates [fold] > 500) | A (A indicates [fold] > 500) | A (A indicates [fold] > 500) | > 1 µM | C=CC(=O)Nc1ccc2c(-c3ccccc3CNc3nc(NC[C@H]4CNC[C@@H]4O)nc4c(C(C)C)cnn34)nccc2c1 [Compound 111]
> 1 µM | < 1 µM | > 1 µM | < 1 µM | 0.1 to 1 µM | B (B indicates 50 < [fold] ≤ 500) | B (B indicates 50 < [fold] ≤ 500) | B (B indicates 50 < [fold] ≤ 500) | > 1 µM | CC(C)c1cnn2c(NCc3ccccc3-c3nccc4cc(NC(=O)/C=C/CN(C)C)ccc34)nc(N3C[C@H]4CC[C@@H](C3)O4)nc12 [Compound 102]
> 1 µM | < 1 µM | > 1 µM | < 1 µM | < 0.1 µM | A (A indicates [fold] > 500) | A (A indicates [fold] > 500) | A (A indicates [fold] > 500) | > 1 µM | C=C(F)C(=O)Nc1ccc2c(-c3ccccc3CNc3nc(NC4CCC(C)(C)NC4)nc4c(C(C)C)cnn34)nccc2c1 (stereo not drawn) [Compound 175]
> 1 µM | < 1 µM | > 1 µM | < 1 µM | < 0.1 µM | B (B indicates 50 < [fold] ≤ 500) | B (B indicates 50 < [fold] ≤ 500) | B (B indicates 50 < [fold] ≤ 500) | > 1 µM | C=CC(=O)Nc1ccc2c(-c3ccccc3CNc3nc(N4CCS(=O)(=O)CC4)nc4c(C(C)C)cnn34)nccc2c1 [Compound 113]
> 1 µM | < 1 µM | > 1 µM | < 1 µM | 0.1 to 1 µM | C (C indicates [fold] ≤ 50) | C (C indicates [fold] ≤ 50) | C (C indicates [fold] ≤ 50) | > 1 µM | CC(C)c1cnn2c(NCc3ccccc3-c3nccc4cc(NC(=O)/C=C/CN(C)C)ccc34)nc(N3CCC(=O)CC3)nc12 [Compound 106]
> 1 µM | < 1 µM | > 1 µM | < 1 µM | < 0.1 µM | A (A indicates [fold] > 500) | A (A indicates [fold] > 500) | A (A indicates [fold] > 500) | > 1 µM | C=C(F)C(=O)Nc1ccc2c(-c3ccccc3CNc3nc(O[C@@H]4CCCNC4)nc4c(C(C)C)cnn34)nccc2c1 [Compound 137]
> 1 µM | < 1 µM | > 1 µM | < 1 µM | < 0.1 µM | A (A indicates [fold] > 500) | A (A indicates [fold] > 500) | A (A indicates [fold] > 500) | > 1 µM | CC(C)c1cnn2c(NCc3ccccc3-c3nccc4cc(NC(=O)/C=C/CN(C)C)ccc34)nc(N3CCOC4(CCN(C)CC4)C3)nc12 [Compound 120]
> 1 µM | < 1 µM | > 1 µM | < 1 µM | 0.1 to 1 µM | B (B indicates 50 < [fold] ≤ 500) | B (B indicates 50 < [fold] ≤ 500) | B (B indicates 50 < [fold] ≤ 500) | > 1 µM | CC(C)c1cnn2c(NCc3ccccc3-c3nccc4cc(NC(=O)/C=C/CN(C)C)ccc34)nc(N3CCC(C#N)CC3)nc12 [Compound 105]
